What is called IC50 is the concentration at which inhibition is half-maximal.

The values that follow come from article PMC9343605, “Structural insights into ligand recognition and selectivity of somatostatin receptors” (Cell Research, 2022).

Assay [1] addresses T1, SSTR2 (Homo sapiens, UniProt P30874, Q126A). Briefly: Whole cell binding assay, SSTR2, competition with 125I-Tyr11-SST14, CHO-K1.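 For all read-outs here: Cell-bound radioactivity in lysed CHO-K1 cells read by scintillation counting, each mutation introduced singly into the WT receptor, at least three independent experiments run in technical triplicate.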 The settings on record: for Emax: CHO-K1, read-out: Span.
Protocol: (§1) For SSTR2 and SSTR4, CHO-K1 cells were cultured in F12 medium with 10% FBS and seeded at a density of 30,000 cells/well in Isoplate-96 plates (PerkinElmer). Twenty-four hours after transfection with the WT or mutant SSTR2/SSTR4, CHO-K1 cells were washed twice and incubated with blocking buffer (F12 supplemented with 25 mM HEPES and 0.1% (w/v) BSA, pH 7.4) for 2 h at 37 °C. […] Following incubation, cells were washed three times with ice-cold PBS and lysed by 50 μL lysis buffer (PBS supplemented with 20 mM Tris-HCl, 1% Triton X-100, pH 7.4). The radioactivity was subsequently counted (counts/min, CPM) in a scintillation counter (MicroBeta[2] Plate Counter, PerkinElmer) using a scintillation cocktail (OptiPhaseSuperMix, PerkinElmer). Data were analyzed by nonlinear regression using GraphPad PRISM 8.
(§2) aMutants represent that all mutations were introduced separately into the WT receptors
and expressed in CHO K1 cells.
(§3) bThe IC50 ratio was shown as IC50(mutant)/IC50(WT), indicating the shift between the WT
(§4) and mutant curves, reflecting the effect of the mutations on ligand binding.
(§5) cData are shown as mean ± S.E.M. form at least three independent experiments
(§6) performed in technical triplicate. One-way ANOVA was performed followed by
(§7) Dunnett’s post-test and compared with WT.
(§8) d The span is defined as the window between the maximal agonists response (Emax) and
(§9) e Sample size; the number of independent experiments performed in technical triplicate.
Assay [2] concerns the target T2, SSTR2 (Homo sapiens, UniProt P30874). Described as above. Conditions: for Emax: CHO-K1, read-out: Span.
Protocol: as §1, §2
and expressed in CHO K1 cells.
as §3, §4, §5, §6, §7, §8, §9
Assay [3] concerns the target T3, SSTR2 (Homo sapiens, UniProt P30874, F294A). Described as above. Conditions: for Emax: CHO-K1, read-out: Span.
Protocol: as §1, §2
and expressed in CHO K1 cells.
as §3, §4, §5, §6, §7, §8, §9
In assay [4] the target is SSTR2 (Homo sapiens, UniProt P30874, D295A). Described as above.
Sequence of SSTR2 (Homo sapiens, UniProt P30874, D295A) (P30874 whole entry D295A): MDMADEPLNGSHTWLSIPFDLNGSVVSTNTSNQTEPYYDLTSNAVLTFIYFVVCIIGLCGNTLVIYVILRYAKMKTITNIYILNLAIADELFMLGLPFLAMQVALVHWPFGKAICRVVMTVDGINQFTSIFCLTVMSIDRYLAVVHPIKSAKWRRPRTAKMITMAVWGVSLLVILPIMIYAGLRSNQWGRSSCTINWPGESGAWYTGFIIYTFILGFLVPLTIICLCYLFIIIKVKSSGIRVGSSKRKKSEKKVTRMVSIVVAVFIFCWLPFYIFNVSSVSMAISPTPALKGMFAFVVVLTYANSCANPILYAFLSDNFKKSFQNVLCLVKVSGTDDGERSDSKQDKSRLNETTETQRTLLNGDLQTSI
Protocol: as §1, §2
and expressed in CHO K1 cells.
as §3, §4, §5, §6, §7, §8, §9
Assay [5] addresses T4, SSTR2 (Homo sapiens, UniProt P30874, D122A). Described as above. Conditions: CHO-K1, read-out: Span.
Protocol: as §1, §2
and expressed in CHO K1 cells.
as §3, §4, §5, §6, §7, §8, §9
Assay [6] addresses SSTR2 (Homo sapiens, UniProt P30874, N43A). Described as above.
Protocol: as §1, §2
and expressed in CHO K1 cells.
as §3, §4, §5, §6, §7, §8, §9
The target of assay [7] is T5, SSTR2 (Homo sapiens, UniProt P30874, Q102A). Described as above. Conditions: for Emax: CHO-K1, read-out: Span.
T5 sequence (P30874 whole entry Q102A): as the sequence (P30874 whole entry D295A) above, with Q102A, A295D counted along it
Protocol: as §1, §2
and expressed in CHO K1 cells.
as §3, §4, §5, §6, §7, §8, §9
Assay [8] concerns the target SSTR2 (Homo sapiens, UniProt P30874, F275A). The assay is described as above. Conditions: for Emax: CHO-K1, read-out: Span.
Protocol: as §1, §2
and expressed in CHO K1 cells.
as §3, §4, §5, §6, §7, §8, §9
The target of assay [9] is SSTR2 (Homo sapiens, UniProt P30874, S42A). The assay is described as above.
Sequence of SSTR2 (Homo sapiens, UniProt P30874, S42A) (P30874 whole entry S42A): as the sequence (P30874 whole entry D295A) above, with S42A, A295D counted along it
Protocol: as §1, §2
and expressed in CHO K1 cells.
as §3, §4, §5, §6, §7, §8, §9
The target of assay [10] is T6, SSTR2 (Homo sapiens, UniProt P30874, F272A). The assay is described as above. The settings on record: for Emax: CHO-K1, read-out: Span.
T6 sequence (P30874 whole entry F272A): as the sequence (P30874 whole entry D295A) above, with F272A, A295D counted along it
Protocol: as §1, §2
and expressed in CHO K1 cells.
as §3, §4, §5, §6, §7, §8, §9
Assay [11] deals with T7, SSTR2 (Homo sapiens, UniProt P30874, Y302A). Described as above. Conditions: CHO-K1, read-out: Span.
T7 sequence (P30874 whole entry Y302A): as the sequence (P30874 whole entry D295A) above, with A295D, Y302A counted along it
Protocol: as §1, §2
and expressed in CHO K1 cells.
as §3, §4, §5, §6, §7, §8, §9
For assay [12], the target named is SSTR2 (Homo sapiens, UniProt P30874, T194A). Nature of the assay: cAMP accumulation assay (agonist-induced inhibition of forskolin-stimulated cAMP), SSTR2, HEK293F.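 Note: transiently transfected cells exposed to 2 µM forskolin and a ligand concentration series for 40 min at room temperature in IBMX-containing HBSS, then cAMP quantified.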 The assay is classed as cell-based. Also noted: expressed in transfected cells; host or cells: HEK293F. The settings on record: HEK293F; SSTR2 mutant T194^ECL2A; mean ± SEM; read-out: Span. A general note: Cyclic AMP is a second messenger, typically raised through Gs and lowered through Gi signalling.
Sequence of SSTR2 (Homo sapiens, UniProt P30874, T194A) (P30874 whole entry T194A): as the sequence (P30874 whole entry D295A) above, with T194A, A295D counted along it
Protocol: (§10) HEK293F cells were transiently transfected with WT or mutant SSTR2/SSTR4 using transfection reagent (PEI MAX 2000, Polysciences) and incubated at 37 °C in 5% CO2. Forty-eight hours after transfection, cells were centrifuged and resuspended in stimulation buffer (Hanks’ balanced salt solution (HBSS) supplemented with 5 mM HEPES, 0.5 mM IBMX and 0.1% (w/v) bovine serum albumin (BSA), pH 7.4) to a density of 200,000 cells/mL and added to 384-well white plates (PerkinElmer, 1000 cells/well). cAMP accumulation was measured by a LANCE Ultra cAMP kit (PerkinElmer) according to the manufacturer’s instructions. In brief, transfected cells were incubated for 40 min in stimulation buffer with 2.5 μL forskolin (SSTR2: 2 μM; SSTR4: 4 μM) and gradient concentration of ligand at RT. The reactions were stopped by addition of lysis buffer containing 5 μL Eu-cAMP tracer and 5 μL ULight-anti-cAMP. Plates were then incubated for 60 min at RT and time-resolved FRET signals were measured at 620 nm and 665 nm by an EnVision multilabel plate reader (PerkinElmer). Data were analyzed in GraphPad PRISM 8 and all values were normalized to the WT for each ligand. All outcomes were repeated at least three times.
(§11) aMutants represent that mutations were introduced separately into the WT receptors and
(§12) transiently expressed in HEK 293F cells.
(§13) bThe EC50 ratio was shown as EC50(mutant)/EC50(WT), indicating the shift between the WT
(§14) and mutant curves, reflecting the effect of the mutations on receptor signaling.
(§15) cData are shown as mean ± S.E.M. from at least three independent experiments
as §6
(§16) Dunnett’s post-test and compared with WT. The P value was defined as: *P<0.05;
as §8, §9
(§17) f Receptor expression level of HEK 293F cells was determined independently by flow
(§18) cytometry with anti-FLAG antibody and shown as per cent compared to the WT.

The target of assay [13] is T1, SSTR2. Described as above. Also noted: expressed in transfected cells; host or cells: HEK293F. The settings on record: HEK293F; SSTR2 mutant Q126^3.36A; mean ± SEM; read-out: Span. Type of assay: cell-based.
Protocol: as §10, §11, §12, §13, §14, §15, §6, §16, §8, §9, §17, §18
In assay [14] the target is T2, SSTR2. The description is as above. Type of assay: cell-based. The arrangement: expressed in transfected cells; host or cells: HEK293F. The settings on record: HEK293F; WT SSTR2; window between Emax and vehicle; mean ± SEM; read-out: Span.
Protocol: as §10, §11, §12, §13, §14, §15, §6, §16, §8, §9, §17, §18
The target in assay [15] is T3, SSTR2. The description is as above. The settings on record: HEK293F; SSTR2 mutant F294^7.35A; mean ± SEM; read-out: Span. The assay is classed as cell-based. The arrangement: expressed in transfected cells; host or cells: HEK293F.
Protocol: as §10, §11, §12, §13, §14, §15, §6, §16, §8, §9, §17, §18
Assay [16] has as its target T4, SSTR2. Described as above. The arrangement: expressed in transfected cells; host or cells: HEK293F. The assay is classed as cell-based. The settings on record: HEK293F; SSTR2 mutant D122^3.32A; mean ± SEM; read-out: Span.
Protocol: as §10, §11, §12, §13, §14, §15, §6, §16, §8, §9, §17, §18
For assay [17], the target named is SSTR2 (Homo sapiens, UniProt P30874, T212A). Described as above. The assay is classed as cell-based. The arrangement: expressed in transfected cells; host or cells: HEK293F. Conditions: HEK293F; SSTR2 mutant T212^5.42A; mean ± SEM; read-out: Span.
Sequence of SSTR2 (Homo sapiens, UniProt P30874, T212A) (P30874 whole entry T212A): as the sequence (P30874 whole entry D295A) above, with T212A, A295D counted along it
Protocol: as §10, §11, §12, §13, §14, §15, §6, §16, §8, §9, §17, §18
Assay [18] deals with T5, SSTR2. The description is as above. Conditions: HEK293F; SSTR2 mutant Q102^2.63A; mean ± SEM; read-out: Span. The assay is classed as cell-based. The arrangement: expressed in transfected cells; host or cells: HEK293F.
Protocol: as §10, §11, §12, §13, §14, §15, §6, §16, §8, §9, §17, §18
The target of assay [19] is T6, SSTR2. The description is as above. The arrangement: expressed in transfected cells; host or cells: HEK293F. Type of assay: cell-based. Conditions: HEK293F; SSTR2 mutant F272^6.51A; mean ± SEM; read-out: Span.
Protocol: as §10, §11, §12, §13, §14, §15, §6, §16, §8, §9, §17, §18
For assay [20], the target named is T7, SSTR2. Described as above. The assay is classed as cell-based. Also noted: expressed in transfected cells; host or cells: HEK293F. Conditions: HEK293F; SSTR2 mutant Y302^7.43A; mean ± SEM; read-out: Span.
Protocol: as §10, §11, §12, §13, §14, §15, §6, §16, §8, §9, §17, §18
Assay [21] has as its target SSTR2 (Homo sapiens, UniProt P30874, Y205A). Briefly: Whole cell binding assay, SSTR2, competition with 125I-Tyr11-SST14, CHO-K1.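 Note: Cell-bound radioactivity in lysed CHO-K1 cells read by scintillation counting, each mutation introduced singly into the WT receptor, at least three independent experiments run in technical triplicate.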 The settings on record: CHO-K1, read-out: Span.
Protocol: as §1, §2
and expressed in CHO K1 cells.
as §3, §4, §5, §6, §7, §8, §9
Assay [22] addresses T8, SSTR2 (Homo sapiens, UniProt P30874, Y205W).
T8 construct: expressed in transfected cells; host or cells: HEK293F
Nature of the assay: cAMP accumulation assay (agonist-induced inhibition of forskolin-stimulated cAMP), SSTR2, HEK293F.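 Note: transiently transfected cells exposed to 2 µM forskolin and a ligand concentration series for 40 min at room temperature in IBMX-containing HBSS, then cAMP quantified.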 Conditions: HEK293F; SSTR2 mutant Y205^5.35W; mean ± SEM; read-out: Span. Type of assay: cell-based.
Protocol: as §10, §11, §12, §13, §14, §15, §6, §16, §8, §9, §17, §18

For assay [23], the target named is T9, SSTR2 (Homo sapiens, UniProt P30874, N276A).
T9 construct: expressed in transfected cells; host or cells: HEK293F
T9 sequence (P30874 whole entry N276A): as the sequence (P30874 whole entry D295A) above, with N276A, A295D counted along it
Described as above. The assay is classed as cell-based. The settings on record: HEK293F; SSTR2 mutant N276^6.55A; mean ± SEM; read-out: Span.
Protocol: as §10, §11, §12, §13, §14, §15, §6, §16, §8, §9, §17, §18

The target of assay [24] is T10, SSTR2 (Homo sapiens, UniProt P30874, K291A).
T10 construct: expressed in transfected cells; host or cells: HEK293F
T10 sequence (P30874 whole entry K291A): as the sequence (P30874 whole entry D295A) above, with K291A, A295D counted along it
Described as above. The assay is classed as cell-based. The settings on record: HEK293F; SSTR2 mutant K291^7.32A; mean ± SEM; read-out: Span.
Protocol: as §10, §11, §12, §13, §14, §15, §6, §16, §8, §9, §17, §18

In assay [25] the target is T11, SSTR2 (Homo sapiens, UniProt P30874, F208A).
T11 construct: expressed in transfected cells; host or cells: HEK293F
T11 sequence (P30874 whole entry F208A): as the sequence (P30874 whole entry D295A) above, with F208A, A295D counted along it
Described as above. The assay is classed as cell-based. Conditions: HEK293F; SSTR2 mutant F208^5.38A; mean ± SEM; read-out: Span.
Protocol: as §10, §11, §12, §13, §14, §15, §6, §16, §8, §9, §17, §18

Assay [26] concerns the target T12, SSTR2 (Homo sapiens, UniProt P30874, S192A).
T12 construct: expressed in transfected cells; host or cells: HEK293F
Described as above. Type of assay: cell-based. The settings on record: HEK293F; SSTR2 mutant S192^ECL2A; mean ± SEM; read-out: Span.
Protocol: as §10, §11, §12, §13, §14, §15, §6, §16, §8, §9, §17, §18

For assay [27], the target named is T13, SSTR2 (Homo sapiens, UniProt P30874, V298A).
T13 construct: expressed in transfected cells; host or cells: HEK293F
T13 sequence (P30874 whole entry V298A): as the sequence (P30874 whole entry D295A) above, with A295D, V298A counted along it
The assay is described as above. Conditions: HEK293F; SSTR2 mutant V298^7.39A; mean ± SEM; read-out: Span. The assay is classed as cell-based.
Protocol: as §10, §11, §12, §13, §14, §15, §6, §16, §8, §9, §17, §18

Assay [28] concerns the target T14, SSTR2 (Homo sapiens, UniProt P30874, F294N).
T14 construct: expressed in transfected cells; host or cells: HEK293F
The description is as above. Type of assay: cell-based. The settings on record: HEK293F; SSTR2 mutant F294^7.35N; mean ± SEM; read-out: Span.
Protocol: as §10, §11, §12, §13, §14, §15, §6, §16, §8, §9, §17, §18

In assay [29] the target is T15, SSTR2 (Homo sapiens, UniProt P30874, P286A).
T15 construct: expressed in transfected cells; host or cells: HEK293F
T15 sequence (P30874 whole entry P286A): as the sequence (P30874 whole entry D295A) above, with P286A, A295D counted along it
The assay is described as above. Type of assay: cell-based. Conditions: HEK293F; SSTR2 mutant P286^ECL3A; mean ± SEM; read-out: Span.
Protocol: as §10, §11, §12, §13, §14, §15, §6, §16, §8, §9, §17, §18

The target of assay [30] is T16, SSTR2 (Homo sapiens, UniProt P30874, I284A).
T16 construct: expressed in transfected cells; host or cells: HEK293F
T16 sequence (P30874 whole entry I284A): as the sequence (P30874 whole entry D295A) above, with I284A, A295D counted along it
The description is as above. The assay is classed as cell-based. Conditions: HEK293F; SSTR2 mutant I284^ECL3A; mean ± SEM; read-out: Span.
Protocol: as §10, §11, §12, §13, §14, §15, §6, §16, §8, §9, §17, §18

Molecules are shown by their SMILES.

T2 sequence (P30874 whole entry): as the sequence (P30874 whole entry D295A) above, with A295D counted along it
Sequence of SSTR2 (Homo sapiens, UniProt P30874, F275A) (P30874 whole entry F275A): as the sequence (P30874 whole entry D295A) above, with F275A, A295D counted along it
T1 sequence (P30874 whole entry Q126A): as the sequence (P30874 whole entry D295A) above, with Q126A, A295D counted along it
T4 sequence (P30874 whole entry D122A): as the sequence (P30874 whole entry D295A) above, with D122A, A295D counted along it
T3 sequence (P30874 whole entry F294A): as the sequence (P30874 whole entry D295A) above, with F294A, A295D counted along it
Sequence of SSTR2 (Homo sapiens, UniProt P30874, N43A) (P30874 whole entry N43A): as the sequence (P30874 whole entry D295A) above, with N43A, A295D counted along it
T14 sequence (P30874 whole entry F294N): as the sequence (P30874 whole entry D295A) above, with F294N, A295D counted along it
T8 sequence (P30874 whole entry Y205W): as the sequence (P30874 whole entry D295A) above, with Y205W, A295D counted along it
Sequence of SSTR2 (Homo sapiens, UniProt P30874, Y205A) (P30874 whole entry Y205A): as the sequence (P30874 whole entry D295A) above, with Y205A, A295D counted along it
T12 sequence (P30874 whole entry S192A): as the sequence (P30874 whole entry D295A) above, with S192A, A295D counted along it

`CC(=O)N[C@@H](Cc1ccc([N+](=O)[O-])cc1)C(=O)N[C@@H]1CSSC[C@@H](C(=O)N[C@H](Cc2ccc(O)cc2)C(N)=O)NC(=O)[C@H]([C@@H](C)O)NC(=O)[C@H](CCCCN)NC(=O)[C@@H](Cc2c[nH]c3ccccc23)NC(=O)[C@H](Cc2ccc(O)cc2)NC1=O` [CYN 154806]: the IC50 on SSTR2 [1] is 135 nM; at SSTR2 [2] it was 4.37 nM; at SSTR2 [3], 21.9 nM; on SSTR2 [4], 3.55 nM; on SSTR2 [6], 8.13 nM; on SSTR2 [7] it was 20.4 nM. Besides, the IC50 was 21.9 nM on SSTR2 [8], 2.75 nM on SSTR2 [9] and 23.4 nM at SSTR2 [10]. The Emax on SSTR2 [1] came to 25 ± 4%; on SSTR2 [2], 100 ± 6%; at SSTR2 [3] it was 36 ± 6%; on SSTR2 [4] (CHO-K1, read-out: Span), 62 ± 6%; at SSTR2 [5], 20 ± 2%; at SSTR2 [6] (CHO-K1, read-out: Span) it was 96 ± 8%. Further, the Emax at SSTR2 [7] came out at 24 ± 5%; on SSTR2 [8], 69 ± 7%; on SSTR2 [9] (CHO-K1, read-out: Span), 145 ± 9%; at SSTR2 [10] it was 21 ± 6%; at SSTR2 [11], 15 ± 5%.

For `C[C@@H](O)[C@@H]1NC(=O)[C@H](CCCCN)NC(=O)[C@@H](Cc2c[nH]c3ccccc23)NC(=O)[C@H](Cc2ccccc2)NC(=O)[C@@H](NC(=O)[C@H](N)Cc2ccccc2)CSSC[C@@H](C(=O)N[C@H](CO)[C@@H](C)O)NC1=O` [Octreotide], the Emax was found to be 125 ± 7% at SSTR2 [12]; 101 ± 7% on SSTR2 [13]; 100 ± 4% on SSTR2 [14]; 123 ± 10% at SSTR2 [15]; 16 ± 4% at SSTR2 [16]; 90 ± 10% on SSTR2 [17]. Further, the Emax at SSTR2 [18] was determined as 30 ± 5%; at SSTR2 [19], 134 ± 17%; at SSTR2 [20] it was 147 ± 12%; at SSTR2 [1], 16 ± 8%; on SSTR2 [2], 100 ± 7%; on SSTR2 [3], 28 ± 9%. Besides, the Emax on SSTR2 [21] amounted to 60 ± 5%; on SSTR2 [5], 16 ± 7%; at SSTR2 [7], 27 ± 4%; on SSTR2 [8], 51 ± 4%; on SSTR2 [10], 26 ± 6%; on SSTR2 [11], 18 ± 7%. Besides, the Emax on SSTR2 [22] was determined as 97 ± 10%; at SSTR2 [23] it was 75 ± 9%; on SSTR2 [24], 103 ± 8%; on SSTR2 [25], 128 ± 8%; at SSTR2 [26], 146 ± 13%; on SSTR2 [27] it was 127 ± 4%. Besides, the Emax on SSTR2 [28] was determined as 47 ± 9%; at SSTR2 [29], 72 ± 8%; at SSTR2 [30], 58 ± 8%.
